Measurements taken from US20150167062A1, “Genome-wide Method of Assessing Interactions Between Chemical Entities And Their Target Molecules” (Whitehead Institute for Biomedical Research, priority 2012, published 2015).

Test system: MM1.S cells, merged BRD4/JQ1 genomic regions
Test: Specificity analysis: overlap between JQ1 Chem-Seq and BRD4 ChIP-Seq data
Assay type: binding, human
Experimental: Chemical crosslinking was terminated by addition of TRIS buffer, pH 7.5, to a final concentration of 300 mM TRIS. Cells were harvested using a silicon scraper, centrifuged and the derived pellets washed three times with PBS. Cell nuclei were prepared as follows: cells were lysed in 50 mM HEPES, pH 7.5, 140 mM NaCl, 1 mM EDTA, 10% Glycerol, 0.5% NP-40, 0.25% Triton X-100 plus protease inhibitor cocktail ‘complete’ (Roche), and cell nuclei were washed once with 10 mM Tris-HCL, pH 8.0, 200 mM NaCl, 1 mM EDTA, 0.5 mM EGTA and protease inhibitors. […] Finally, purified DNA fragments were massively parallel sequenced and the sequencing data analyzed as described (33). […]
All ChIP-Seq and Chem-seq datasets were aligned using Bowtie (version 0.12.2) (35) to build version NCBI36/HG18 of the human genome. […] To obtain the normalized read density of ChIP-Seq datasets in any region, ChIP-Seq reads aligning to the region were extended automatically by MACS and the density of reads per basepair (bp) was calculated. The density of reads in each region was normalized to the total number of million mapped reads producing read density in units of reads per million mapped reads per by (rpm/bp).
Chem-Seq and ChIP-Seq data was analyzed to identify genomic regions with substantial JQ 1 Chem-Seq signal but no significant BRD4 ChIP-Seq signal, reasoning these sites might represent off-target interactions of JQ1. […]

SMILES: Cc1sc2c(c1C)C(c1ccc(Cl)cc1)=N[C@@H](CC(=O)OC(C)(C)C)c1nnc(C)n1-2 [JQ1]
- Off-target interaction (JQ1 Chem-Seq signal at regions of the genome without BRD4) (MM1.S cells, GLM differential binding analysis): no identifiable off-target interaction
- Genomic regions with significant differences in JQ1 Chem-Seq and BRD4 ChIP-Seq signals (out of 25,060 merged regions, FDR<=0.25, MM1.S cells): 10 regions
